Measured values published in patent publication US11236090B2, “Substituted glutarimides as CDK inhibitors” (SHANGHAI MEIZER PHARMACEUTICALS CO., LTD., priority 2017, dated 2022).

How the values were obtained:
CDK4 [1] = molecular target: T1, CDK4 (Homo sapiens, UniProt P11802); assay: CDK4 inhibition by Caliper assay; assay type: biochemical; conditions: compound 100 nM
Description: (§1) The experimental steps were as follows:
(§2) Preparation of 1×kinase reaction buffer (50 mM HEPES, PH 7.5; 0.0015% Brij-35) and kinase reaction termination solution (100 mM HEPES, PH 7.5; 0.0015% Brij-35; 0.2% Coating Reagent; 50 mM EDTA) preparation of experimental samples: 100 μL of 5 μM sample solution (dissolved in 100% DMSO) was added to a 96-well plate to obtain a 50×sample solution. As controls, two wells containing only 100 μL of 100% DMSO were set on the same plate. One was served as a control without samples and the other was served as a control without enzymes. 10 μL of sample and 90 μL of 1×kinase reaction buffer were added to a 96-well plate as a transfer plate. The transfer plate was shaken for 10 minutes.
(§3) Preparation of the test plate: taking 5 μL of each of the prepared samples in the 96-well transfer plate into a 384-well plate. Kinase reaction: to 5 μL of 5×compound solution (dissolved in DMSO, diluted 10 times with water) was added 10 μL of 2.5×CDK4/6 kinase solution (kinase was diluted with 1×kinase reaction buffer), which was incubated at room temperature for 10 min, and then 10 μL of 2.5×substrate peptide solution (FAM-labeled peptide and ATP were diluted with 1×kinase reaction buffer) was added. Termination of the kinase reaction: 25 μL of kinase reaction termination solution was added after being reacted at 28° C. for a period of time. The fluorescence (F) was tested on a Caliper and data was collected. The inhibition rate of kinase activity was calculated: the percent inhibition rate of kinase activity=(FDMSO control−Fsample)/(FDMSO control−Fnegative control)×100%, with DMSO as the solution control, and no kinase as the negative control.
Target sequence in this assay (P11802 whole entry, species assumed): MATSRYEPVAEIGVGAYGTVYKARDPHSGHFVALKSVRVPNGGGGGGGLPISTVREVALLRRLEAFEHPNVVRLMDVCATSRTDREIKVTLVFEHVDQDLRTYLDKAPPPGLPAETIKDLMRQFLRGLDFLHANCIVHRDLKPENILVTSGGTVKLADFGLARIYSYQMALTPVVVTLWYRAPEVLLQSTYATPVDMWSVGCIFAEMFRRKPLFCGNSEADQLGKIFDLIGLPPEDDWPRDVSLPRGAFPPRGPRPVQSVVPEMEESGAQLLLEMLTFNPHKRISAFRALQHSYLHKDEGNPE
Target sequence in this assay (P30281 whole entry partner, species assumed): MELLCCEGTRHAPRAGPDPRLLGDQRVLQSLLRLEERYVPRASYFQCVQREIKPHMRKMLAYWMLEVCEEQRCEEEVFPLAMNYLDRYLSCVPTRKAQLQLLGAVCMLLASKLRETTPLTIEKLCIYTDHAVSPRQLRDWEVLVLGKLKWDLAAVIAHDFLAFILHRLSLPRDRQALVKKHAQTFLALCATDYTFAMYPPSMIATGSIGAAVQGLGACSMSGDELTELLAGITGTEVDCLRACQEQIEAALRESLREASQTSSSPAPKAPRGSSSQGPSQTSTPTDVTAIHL

CDK6 [2] = molecular target: T2, CDK6 (Homo sapiens, UniProt Q00534); assay: CDK6 inhibition by Caliper assay; assay type: biochemical; conditions: compound 100 nM
Description: as §1, §2, §3
Target sequence in this assay (Q00534 whole entry, species assumed): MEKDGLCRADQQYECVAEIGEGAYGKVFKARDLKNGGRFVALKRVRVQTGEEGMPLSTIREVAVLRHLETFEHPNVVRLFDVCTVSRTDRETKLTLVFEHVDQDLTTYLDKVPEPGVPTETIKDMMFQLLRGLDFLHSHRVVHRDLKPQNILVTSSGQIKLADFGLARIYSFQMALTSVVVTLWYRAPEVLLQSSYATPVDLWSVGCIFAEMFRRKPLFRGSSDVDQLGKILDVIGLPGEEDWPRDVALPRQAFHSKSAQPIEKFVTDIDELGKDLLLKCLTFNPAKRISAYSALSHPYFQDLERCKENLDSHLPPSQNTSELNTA
Target sequence in this assay (P30281 whole entry partner, species assumed): as the sequence (P30281 whole entry partner, species assumed) above

MCF-7 cells = assay: Inhibition of proliferation of MCF-7 cells by MTT assay; assay type: cell-based; conditions: Homo sapiens, MCF7, 48 hours
Description: The inhibitory effect of the compound on the proliferation of MCF-7 cells (commercially available from ATCC) was determined by the MTT method in vitro. […] Each compound was dissolved in dimethyl sulfoxide (DMSO) to obtain a solution with a concentration of 10 mM, and then diluted to the desired concentration with a phosphate buffer solution. The solution was added to the above 96-well plate. Each concentration has 2 wells with 10 μl per well. Each concentration was tested in duplicate. As a control, DMSO was diluted in the corresponding gradient and then added to the plate. After the 96-well plate was cultured in a 37° C., 5% CO2 cell incubator for 48 hours, 20 μl of MTT solution in 5 mg/ml was added to each well, and it was cultured in the incubator for another 3 to 4 hours. 100 μl of lysate was added to each well and the cells were further incubated overnight in the incubator to fully dissolve the formazan crystals generated. The light absorption value at 492 nm was measured. The relative survival rate of the cells after the compound treatment was calculated based on the light absorption value. The IC50 of the compound against MCF-7 cells was calculated by software.

T47D cells = assay: Inhibition of proliferation of T47D cells by CCK8 assay; assay type: cell-based; conditions: Homo sapiens, CCK8, 72 hours
Description: The inhibitory effect of the compound on the proliferation of T47D cells (commercially available from ATCC) was determined by the CCK8 method in vitro. The experimental steps were as follows: T47D cells were cultured in 1640 medium of 10% calf serum, seeded in a 96-well plate with 1.5×10^5/ml, and placed in a 37° C., 5% CO2 incubator. Each compound or the positive drug (Ribociclib) was dissolved in dimethyl sulfoxide (DMSO) to obtain a solution with a concentration of 100 mM, and then diluted to the desired concentration with the culture medium. The solutions were then added to the above 96-well plates. Each concentration has 3 wells with 50 μl per well. As a control, DMSO was diluted in the corresponding gradient and then added to the plate. After the 96-well plate was cultured in a 37° C., 5% CO2 cell incubator for 72 hours, 110 μl of CCK8 solution in 9% was added to each well, and it was cultured in the incubator for another 4 hours. The light absorption value at 450 nm was measured. The relative survival rate of the cells after the compound treatment was calculated based on the light absorption value. The IC50 of the compound against T47D cells was calculated by software.

CDK4 [3] = molecular target: T1, CDK4; assay: CDK4 protein degradation activity by Western blot in MCF-7 cells; assay type: cell-based; set-up: host or cells: MCF-7; conditions: MCF7, compound 1 μM, 24 hours
Description: (§4) Cell lines: MCF-7 cell lines (human breast cancer cells, available from ATCC) were cultured in MEM medium containing 10% calf serum in a 37° C., 5% CO2, and saturated humidity incubator. DMSO control group and compound intervention group (1 μM) were set. Cells were collected after the treatment for 24 hours, then 100 μL of pre-chilled cell lysate was added and cells were lysed on ice for 30 minutes, total cell protein was extracted, and protein concentration was determined and quantified by bicinchoninic acid method. After routine gelatinization, loading, electrophoresis, then transferring to membrane and blocking, rabbit anti-human CDK4 (1:450) and rabbit anti-human CDK6 (1:150) were added and incubated at 4° C. overnight. The mixture was rinsed and then secondary antibody IgG (1:5000) was added. After the rinsing it was developed by the ECL developing solution, the Bio-Rad gel imaging system was used for scanning and imaging, and the computer software was used for analysis. […] (GAPDH) was used as an internal control. Image J software was used to analyze the gray scale of each band to calculate the degradation rate of the compound to degrade CDK4/6 protein.
Target sequence in this assay (P11802 whole entry): as the sequence (P11802 whole entry, species assumed) above

CDK6 [4] = molecular target: T2, CDK6; assay: CDK6 protein degradation activity by Western blot in MCF-7 cells; assay type: cell-based; set-up: host or cells: MCF-7; conditions: MCF7, compound 1 μM, 24 hours
Description: as §4
Target sequence in this assay (Q00534 whole entry): as the sequence (Q00534 whole entry, species assumed) above

SMILES	inhibition at 0.1 µM (CDK4 [1])	inhibition at 0.1 µM (CDK6 [2])	IC50 (MCF-7 cells)	IC50 (T47D cells)	Dmax at 1 µM (CDK4 [3])	Dmax at 1 µM (CDK6 [4])
CN(C)C(=O)c1cc2cnc(Nc3ccc(N4CCN(CCCCCC(=O)Nc5cccc6c5C(=O)N(C5CCC(=O)NC5=O)C6=O)CC4)cn3)nc2n1C1CCCC1 (stereo not drawn) [Compound 3]	97%	86%	0.08 µM	13.7 µM	> 90%	50 to 90%
CC(=O)c1c(C)c2cnc(Nc3ccc(N4CCN(S(=O)(=O)CCCCCOc5cccc6c5C(=O)N(C5CCC(=O)NC5=O)C6=O)CC4)cn3)nc2n(C2CCCC2)c1=O (stereo not drawn) [Compound 14]	92%	85%				
CN(C)C(=O)c1cc2cnc(Nc3ccc(N4CCN(CCOCCOCCOCCNc5cccc6c5C(=O)N(C5CCC(=O)NC5=O)C6=O)CC4)cn3)nc2n1C1CCCC1 (stereo not drawn) [Compound 18]	80%	29%		8.1 µM	> 90%	> 90%
CN(C)C(=O)c1cc2cnc(Nc3ccc(N4CCN(CCOCCOCCOc5cccc6c5C(=O)N(C5CCC(=O)NC5=O)C6=O)CC4)cn3)nc2n1C1CCCC1 (stereo not drawn) [Compound 19]	80%	43%			> 90%	50 to 90%
CN(C)C(=O)c1cc2cnc(Nc3ccc(N4CCN(CCOCCOCCOCCOc5cccc6c5C(=O)N(C5CCC(=O)NC5=O)C6=O)CC4)cn3)nc2n1C1CCCC1 (stereo not drawn) [Compound 20]					50 to 90%	50 to 90%
CN(C)C(=O)c1cc2cnc(Nc3ccc(N4CCN(CCCNC(=O)COc5cccc6c5C(=O)N(C5CCC(=O)NC5=O)C6=O)CC4)cn3)nc2n1C1CCCC1 (stereo not drawn) [Compound 46]					> 90%	50 to 90%
CN(C)C(=O)c1cc2cnc(Nc3ccc(N4CCN(CCCCCNC(=O)COc5cccc6c5C(=O)N(C5CCC(=O)NC5=O)C6=O)CC4)cn3)nc2n1C1CCCC1 (stereo not drawn) [Compound 47]					> 90%	50 to 90%
CN(C)C(=O)c1cc2cnc(Nc3ccc(N4CCN(CCOCCNC(=O)COc5cccc6c5C(=O)N(C5CCC(=O)NC5=O)C6=O)CC4)cn3)nc2n1C1CCCC1 (stereo not drawn) [Compound 48]					> 90%	50 to 90%
CN(C)C(=O)c1cc2cnc(Nc3ccc(N4CCNCC4)cn3)nc2n1C1CCCC1 [Ribociclib, reference compound]				68.7 µM		

Second part, the molecule after the results:

inhibition at 0.1 µM (CDK4 [1])	inhibition at 0.1 µM (CDK6 [2])	IC50 (MCF-7 cells)	IC50 (T47D cells)	Dmax at 1 µM (CDK4 [3])	Dmax at 1 µM (CDK6 [4])	SMILES
82%	84%	0.2 µM		50 to 90%	50 to 90%	CC(=O)c1c(C)c2cnc(Nc3ccc(N4CCN(CCOCCOCCOc5cccc6c5C(=O)N(C5CCC(=O)NC5=O)C6=O)CC4)cn3)nc2n(C2CCCC2)c1=O (stereo not drawn) [Compound 8]
93%	79%					CC(=O)c1c(C)c2cnc(Nc3ccc(N4CCN(C(=O)COCCOCCNc5cccc6c5C(=O)N(C5CCC(=O)NC5=O)C6=O)CC4)cn3)nc2n(C2CCCC2)c1=O (stereo not drawn) [Compound 11]
91%	69%	0.22 µM				CC(=O)c1c(C)c2cnc(Nc3ccc(N4CCN(CCOCCOCCNc5cccc6c5C(=O)N(C5CCC(=O)NC5=O)C6=O)CC4)cn3)nc2n(C2CCCC2)c1=O (stereo not drawn) [Compound 15]
97%	68%	0.3 µM		50 to 90%	50 to 90%	CC(=O)c1c(C)c2cnc(Nc3ccc(N4CCN(CCOCCOCCOCCNc5cccc6c5C(=O)N(C5CCC(=O)NC5=O)C6=O)CC4)cn3)nc2n(C2CCCC2)c1=O (stereo not drawn) [Compound 16]
82%	25%			50 to 90%	50 to 90%	CN(C)C(=O)c1cc2cnc(Nc3ccc(N4CCN(CCOCCOCCNc5cccc6c5C(=O)N(C5CCC(=O)NC5=O)C6=O)CC4)cn3)nc2n1C1CCCC1 (stereo not drawn) [Compound 17]
93%	97%	0.16 µM		50 to 90%	50 to 90%	CC(=O)c1c(C)c2cnc(Nc3ccc(N4CCN(CCOCCOCCOCCOc5cccc6c5C(=O)N(C5CCC(=O)NC5=O)C6=O)CC4)cn3)nc2n(C2CCCC2)c1=O (stereo not drawn) [Compound 21]
				50 to 90%	50 to 90%	CC(=O)c1c(C)c2cnc(Nc3ccc(N4CCN(CCCCCCOc5cccc6c5C(=O)N(C5CCC(=O)NC5=O)C6=O)CC4)cn3)nc2n(C2CCCC2)c1=O (stereo not drawn) [Compound 23]
96%	91%			> 90%	> 90%	CC(=O)c1c(C)c2cnc(Nc3ccc(N4CCN(CCCCOc5cccc6c5C(=O)N(C5CCC(=O)NC5=O)C6=O)CC4)cn3)nc2n(C2CCCC2)c1=O (stereo not drawn) [Compound 24]
				50 to 90%	50 to 90%	CC(=O)c1c(C)c2cnc(Nc3ccc(N4CCN(CCCCCCCCOc5cccc6c5C(=O)N(C5CCC(=O)NC5=O)C6=O)CC4)cn3)nc2n(C2CCCC2)c1=O (stereo not drawn) [Compound 25]
				50 to 90%	50 to 90%	CC(=O)c1c(C)c2cnc(Nc3ccc(N4CCN(CCCCCCNc5cccc6c5C(=O)N(C5CCC(=O)NC5=O)C6=O)CC4)cn3)nc2n(C2CCCC2)c1=O (stereo not drawn) [Compound 26]
				50 to 90%	50 to 90%	CC(=O)c1c(C)c2cnc(Nc3ccc(N4CCN(CCCOCCNc5cccc6c5C(=O)N(C5CCC(=O)NC5=O)C6=O)CC4)cn3)nc2n(C2CCCC2)c1=O (stereo not drawn) [Compound 27]
				50 to 90%	50 to 90%	CC(=O)c1c(C)c2cnc(Nc3ccc(N4CCN(CCOCCCNc5cccc6c5C(=O)N(C5CCC(=O)NC5=O)C6=O)CC4)cn3)nc2n(C2CCCC2)c1=O (stereo not drawn) [Compound 28]
				> 90%	> 90%	CC(=O)c1c(C)c2cnc(Nc3ccc(N4CCN(CCCCCNC(=O)COc5cccc6c5C(=O)N(C5CCC(=O)NC5=O)C6=O)CC4)cn3)nc2n(C2CCCC2)c1=O (stereo not drawn) [Compound 38]
